Data as given in the supplement of paper PMC10307832.

How the values were obtained:
Assay in all cases: relative viability (nuclei count vs DMSO), 5 days (fraction); higher = more cells survive
NCI-H1793 = test system: NCI-H1793
Method in brief: (§1)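 Relative viability was taken as the ratio of nuclei in treated wells to nuclei in vehicle wells. Lung cancer cell lines in 1536-well plates received compounds by pin tool one day after seeding, either one drug alone or a fixed anchor-drug dose plus five library-drug doses (not always all listed) in √10 steps. Nuclei were counted on 4× images after 5 days of treatment, and values are medians of duplicate plates.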

HCC-366 = test system: HCC-366
Method in brief: as §1

NCI-H441 = test system: NCI-H441
Method in brief: as §1

NCI-H1651 = test system: NCI-H1651
Method in brief: as §1

LOU-NH91 = test system: LOU-NH91
Method in brief: as §1

NCI-H522 = test system: NCI-H522
Method in brief: as §1

LXF-289 = test system: LXF-289
Method in brief: as §1

NCI-H2347 = test system: NCI-H2347
Method in brief: as §1

HCC-15 = test system: HCC-15
Method in brief: as §1

NCI-H2085 = test system: NCI-H2085
Method in brief: as §1

H3255 = test system: H3255
Method in brief: as §1

NCI-H1915 = test system: NCI-H1915
Method in brief: as §1

LC-2-ad = test system: LC-2-ad
Method in brief: as §1

NCI-H838 = test system: NCI-H838
Method in brief: as §1

SK-MES-1 = test system: SK-MES-1
Method in brief: as §1

HARA = test system: HARA
Method in brief: as §1

NCI-H661 = test system: NCI-H661
Method in brief: as §1

BEN = test system: BEN
Method in brief: as §1

NCI-H647 = test system: NCI-H647
Method in brief: as §1

CAL-12T = test system: CAL-12T
Method in brief: as §1

NCI-H322M = test system: NCI-H322M
Method in brief: as §1

NCI-H2170 = test system: NCI-H2170
Method in brief: as §1

UMC-11 = test system: UMC-11
Method in brief: as §1

NCI-H650 = test system: NCI-H650
Method in brief: as §1

NCI-H1395 = test system: NCI-H1395
Method in brief: as §1

For `Nc1cccc2c1CN(C1CCC(=O)NC1=O)C2=O` (configuration not stated) [Lenalidomide] + O=C(c1cc(Cc2n[nH]c(=O)c3ccccc23)ccc1F)N1CCN(C(=O)C2CC2)CC1 [Olaparib] (partner 8 µM), the relative viability (NCI-H1793; first compound 0.253 µM) was 0.863, the relative viability (NCI-H1793; first compound 2.53 µM) was 1.07 and the relative viability (NCI-H1793; first compound 8 µM) was 0.539. It also gave a relative viability (HCC-366; first compound 0.253 µM) of 0.328, a relative viability (HCC-366; first compound 0.8 µM) of 0.309 and a relative viability (HCC-366; first compound 2.53 µM) of 0.373. For the same compound, the relative viability (HCC-366; first compound 8 µM) was 0.394, the relative viability (NCI-H441; first compound 0.253 µM) was 0.471 and the relative viability (NCI-H441; first compound 0.8 µM) was 0.502. For the same compound, the relative viability (NCI-H441; first compound 2.53 µM) was 0.625, the relative viability (NCI-H441; first compound 8 µM) was 0.577 and the relative viability (NCI-H1651; first compound 0.253 µM) was 0.153. For the same compound, the relative viability (NCI-H1651; first compound 0.8 µM) was 0.169, the relative viability (NCI-H1651; first compound 2.53 µM) was 0.219 and the relative viability (NCI-H1651; first compound 8 µM) was 0.194. For the same compound, the relative viability (LOU-NH91; first compound 0.253 µM) was 0.934, the relative viability (LOU-NH91; first compound 0.8 µM) was 0.948 and the relative viability (LOU-NH91; first compound 2.53 µM) was 0.906. For the same compound, the relative viability (LOU-NH91; first compound 8 µM) was 0.898, the relative viability (NCI-H522; first compound 0.253 µM) was 0.676 and the relative viability (NCI-H522; first compound 0.8 µM) was 0.672. The relative viability (NCI-H522; first compound 2.53 µM) was 0.58, the relative viability (NCI-H522; first compound 8 µM) was 0.608 and the relative viability (LXF-289; first compound 0.253 µM) was 1.04. For the same compound, the relative viability (LXF-289; first compound 0.8 µM) was 1.17, the relative viability (LXF-289; first compound 2.53 µM) was 1.24 and the relative viability (LXF-289; first compound 8 µM) was 1.16. It also gave a relative viability (NCI-H2347; first compound 0.253 µM) of 0.62, a relative viability (NCI-H2347; first compound 0.8 µM) of 0.567 and a relative viability (NCI-H2347; first compound 2.53 µM) of 0.579. It also gave a relative viability (NCI-H2347; first compound 8 µM) of 0.509, a relative viability (HCC-15; first compound 0.253 µM) of 0.686 and a relative viability (HCC-15; first compound 0.8 µM) of 0.728. It also gave a relative viability (HCC-15; first compound 2.53 µM) of 0.819, a relative viability (HCC-15; first compound 8 µM) of 0.706 and a relative viability (NCI-H2085; first compound 0.253 µM) of 0.793. For the same compound, the relative viability (NCI-H2085; first compound 0.8 µM) was 0.796, the relative viability (NCI-H2085; first compound 2.53 µM) was 0.841 and the relative viability (NCI-H2085; first compound 8 µM) was 0.752. It also gave a relative viability (H3255; first compound 0.253 µM) of 0.556, a relative viability (H3255; first compound 0.8 µM) of 0.579 and a relative viability (H3255; first compound 2.53 µM) of 0.602. It also gave a relative viability (H3255; first compound 8 µM) of 0.614, a relative viability (NCI-H1915; first compound 0.253 µM) of 0.265 and a relative viability (NCI-H1915; first compound 0.8 µM) of 0.263. The relative viability (NCI-H1915; first compound 2.53 µM) was 0.284, the relative viability (NCI-H1915; first compound 8 µM) was 0.272 and the relative viability (LC-2-ad; first compound 0.253 µM) was 0.359. It also gave a relative viability (LC-2-ad; first compound 0.8 µM) of 0.716, a relative viability (LC-2-ad; first compound 2.53 µM) of 0.777 and a relative viability (LC-2-ad; first compound 8 µM) of 0.782. The relative viability (NCI-H838; first compound 0.253 µM) was 0.75, the relative viability (NCI-H838; first compound 0.8 µM) was 0.774 and the relative viability (NCI-H838; first compound 2.53 µM) was 0.781. It also gave a relative viability (NCI-H838; first compound 8 µM) of 0.79, a relative viability (SK-MES-1; first compound 0.253 µM) of 0.717 and a relative viability (SK-MES-1; first compound 0.8 µM) of 0.691. It also gave a relative viability (SK-MES-1; first compound 2.53 µM) of 0.715, a relative viability (SK-MES-1; first compound 8 µM) of 0.806 and a relative viability (HARA; first compound 0.253 µM) of 0.925. It also gave a relative viability (HARA; first compound 2.53 µM) of 0.804, a relative viability (HARA; first compound 8 µM) of 1.01 and a relative viability (NCI-H661; first compound 0.253 µM) of 0.725. It also gave a relative viability (NCI-H661; first compound 0.8 µM) of 0.756, a relative viability (NCI-H661; first compound 2.53 µM) of 0.735 and a relative viability (NCI-H661; first compound 8 µM) of 0.704. It also gave a relative viability (BEN; first compound 0.253 µM) of 1.07, a relative viability (BEN; first compound 0.8 µM) of 1.2 and a relative viability (BEN; first compound 2.53 µM) of 1.08. For the same compound, the relative viability (BEN; first compound 8 µM) was 1.08, the relative viability (NCI-H647; first compound 0.253 µM) was 0.525 and the relative viability (NCI-H647; first compound 0.8 µM) was 0.543. It also gave a relative viability (NCI-H647; first compound 2.53 µM) of 0.65, a relative viability (NCI-H647; first compound 8 µM) of 0.566 and a relative viability (CAL-12T; first compound 0.253 µM) of 0.807. The relative viability (CAL-12T; first compound 0.8 µM) was 0.729, the relative viability (CAL-12T; first compound 2.53 µM) was 0.757 and the relative viability (CAL-12T; first compound 8 µM) was 0.941. The relative viability (NCI-H322M; first compound 0.253 µM) was 0.831, the relative viability (NCI-H322M; first compound 0.8 µM) was 0.736 and the relative viability (NCI-H322M; first compound 2.53 µM) was 0.886. For the same compound, the relative viability (NCI-H322M; first compound 8 µM) was 0.945, the relative viability (NCI-H2170; first compound 0.253 µM) was 0.57 and the relative viability (NCI-H2170; first compound 0.8 µM) was 0.611. It also gave a relative viability (NCI-H2170; first compound 2.53 µM) of 0.67, a relative viability (NCI-H2170; first compound 8 µM) of 0.553 and a relative viability (UMC-11; first compound 0.253 µM) of 0.398. For the same compound, the relative viability (UMC-11; first compound 0.8 µM) was 0.695, the relative viability (UMC-11; first compound 2.53 µM) was 0.416 and the relative viability (UMC-11; first compound 8 µM) was 0.405. The relative viability (NCI-H650; first compound 0.253 µM) was 0.384, the relative viability (NCI-H650; first compound 0.8 µM) was 0.294 and the relative viability (NCI-H650; first compound 2.53 µM) was 0.544. It also gave a relative viability (NCI-H650; first compound 8 µM) of 0.369, a relative viability (NCI-H1395; first compound 0.253 µM) of 0.453 and a relative viability (NCI-H1395; first compound 2.53 µM) of 0.523. The relative viability (NCI-H1395; first compound 8 µM) was 0.458.
